# According to PMC3810934 (Emerging Infectious Diseases, 2013):
# Like-named read-outs stand apart in the source and are kept apart here.
# Assays:
# [1] = biological target: T1, Oseltamivir-resistant A/Bethesda/956/2006 neuraminidase (K at 292) (Influenza A virus (H3N2), UniProt F1KL32, R292K); format: biochemical; settings: pH 6.5
# [2] = biological target: T2, Oseltamivir-resistant A/Texas/23/2012 neuraminidase (H275Y) (Influenza A virus (H1N1pdm09), UniProt R4SI91, H275Y); format: biochemical, Pandemic influenza A(H1N1) 2009 virus; settings: pH 6.5
# [3] = biological target: T1, Oseltamivir-resistant A/Bethesda/956/2006 neuraminidase (K at 292); format: biochemical; settings: pH 5.1
# [4] = biological target: T2, Oseltamivir-resistant A/Texas/23/2012 neuraminidase (H275Y); format: biochemical, Pandemic influenza A(H1N1) 2009 virus; settings: pH 5.1
compound,measurement,setting,value
"CCC(CC)[C@H](NC(C)=O)[C@@H]1[C@H](O)[C@@H](C(=O)O)C[C@H]1N=C(N)N [Peramivir, peramivir]",Fold change in IC50 compared with drug-sensitive subtype-specific control,[1],16.27 (203) -fold
same,IC50,[1],16.3 nM
same,Fold change in IC50 compared with drug-sensitive subtype-specific control,[2],15.81 (264) -fold
same,IC50,[2],15.8 nM
same,Fold change in IC50 compared with drug-sensitive subtype-specific control,[3],8.58 (86) fold
same,IC50,[3],8.58 nM
same,Fold change in IC50 compared with drug-sensitive subtype-specific control,[4],30.17 (431) fold
same,IC50,[4],30.2 nM
